Source: US20240408064A1, “RAS INHIBITORS, COMPOSITIONS AND METHODS OF USE THEREOF” (GENETOLEAD INC., priority 2021, published 2024)
Like-named read-outs stand apart in the source and are kept apart here.

How the values were obtained:
KRAS^G12D-GDP [1] = target: T1, KRAS^G12D-GDP (Homo sapiens (Human), UniProt P01116, G12D); experiment: 19F DLB score, KRAS^G12D-GDP; format: binding; parameters: scale not given here
Description: (§1) Since the fragment library was curated using phosphate buffer, 25 mM sodium phosphate pH 7.4, 150 mM NaCl, 5 mM MgCl2, 1 mM TCEP-d16, 10% D2O Fresh TCEP was used for experiments. Screening was performed using ^1H-decoupled 1D ^19F experiment Bruker experiment (zgfhigqn.2) with 64 scans and a relaxation delay of 5 seconds. 50 μM HRas^G12V and 240 μM of each fragment in pools (mixtures) were used.
(§2) Hit confirmation was performed using the same ^19F experiment as the screen. Ligand-observed 1D ^1H, protein-observed 1D ^1H, ^1H T2-CPMG as well as Saturation Transfer Difference (STD) experiments were also run on the same samples. Ligand-observed 1D ^1H was run using the standard Bruker sequence with excitation sculpting (zgesgp) with a relaxation delay of 10 seconds and 16 scans per spectrum. Protein-observed 1D ^1H was performed using the same sequence with a relaxation delay of 1 second and 256 scans in order to increase the signal-to-noise of the protein resonances, while keeping the experimental time relatively short. The ^1H T2-CPMG experiment employed a modified version of the Bruker 1D ^1H zgesgp experiment with the addition of a CPMG pulse train after the first 90° excitation pulse. Total duration for each spin echo was fixed at 1 ms (τ=500 μs), while the number of echoes in the pulse train was varied according to the total time (T). The number of scans for each spectrum was 4 and eight delay times were run on each sample, ranging from 1 ms to 800 ms.
(§3) The activity of compounds of the invention regarding KRAS^G12D-GDP was measured in the same as in Example 80. The results obtained with the compounds in the various assays described above are depicted in Table 23.

HRas^G12V [2] = target: T2, HRas^G12V (Homo sapiens (Human), UniProt P01112, G12V); experiment: Dissociation constant by NMR (1H/15N Fast-HSQC, 1H 1D protein-observed); format: binding
Description: All NMR experiments were collected using 3 mm NMR tubes on a 600 MHz Bruker Avance III spectrometer equipped with a QCI helium cryoprobe and a SampleJet sample changer. The buffer used for NMR experiments was 25 mM sodium phosphate pH 7.4, 150 mM NaCl, 5 mM MgCl2, 1 mM TCEP-d16, 10% D2O. Data were processed using Bruker TopSpin.
^1H/^15N Fast-HSQC experiments (Mori et al., Journal of Magnetic Resonance, Series B, Volume 108, Issue 1, July 1995, Pages 94-98) were recorded at a protein concentration of 50-100 μM.
Dissociation constants were obtained by monitoring changes in chemical shifts as a function of ligand concentration. The changes in chemical shifts (d) were calculated according to the following equation (Williamson, Progress in Nuclear Magnetic Resonance Spectroscopy, Volume 73, August 2013, Pages 1-16): d=√(1/2[δ_H^2+[…]]), Where δ are the changes in chemical shift in ppm for ^1H and ^15N and the correction factor (α) was set at 0.15.
^1H 1D protein-observed experiments were recorded with 15-50 μM protein. The standard Bruker 1D ^1H sequence with excitation sculpting (zgesgp) was employed. A relaxation delay of 1 s was employed in order to use 256 scans while still keeping experimental time fairly short. Changes in protein chemical shift or peak intensity in the methyl region were monitored against compound concentration.

HRas^G12V [3] = target: T2, HRas^G12V; experiment: 19F DLB (ligand-observed 19F NMR) score; format: binding; parameters: scale not given here
How it was run: (§4)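 In the T2-CPMG experiment, echo spacing was 1 ms and total delays ranged over eight values from 1 to 800 ms. Both scores come from 600 MHz NMR of 50 μM HRas G12V mixed with fragment pools at 240 μM each, in phosphate buffer pH 7.4 with NaCl, MgCl2 and TCEP-d16. Ligand-observed 19F spectra were recorded with 1H decoupling, 64 scans and a 5 s relaxation delay.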

KRAS^G12D-GDP [4] = target: T1, KRAS^G12D-GDP; experiment: 19F T2-CPMG score, KRAS^G12D-GDP; format: binding
Description: as §1, §2, §3

HRas^G12V [5] = target: T2, HRas^G12V; experiment: 19F T2-CPMG NMR score; format: binding
How it was run: as §4

HRas^G12V [6] = target: T2, HRas^G12V; experiment: Overall binding/activity in the various assays (NMR consensus binding)
How it was run: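 Fragments (240 µM each, pooled) screened against 50 µM HRas^G12V in 25 mM sodium phosphate pH 7.4, 150 mM NaCl, 5 mM MgCl2, 1 mM TCEP-d16 by 1H-decoupled 1D 19F NMR. Hits confirmed by ligand- and protein-observed 1D 1H, STD and T2-CPMG (aggregation check); consensus binding ranked, with 15N HSQC for sites and Kd.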

[7] = Solubility and free-state aggregation in the NMR screen; format: physicochemical; conditions: NMR buffer
Text: Fragment screening has been performed using a library containing 461 fragments that has been designed using cheminformatics parameters such as Rule of Three and PAINS analysis. All fragments have been curated by ^1H and ^19F NMR for structure verification, purity, solubility in phosphate buffer and lack of apparent aggregation under these conditions. Fragments were pooled according to chemical compatibility resulting in 31 different pools to increase screening throughput. The library was provided by NMX Research in Solutions Inc.
Because of its power to probe the intrinsically weak interactions (Kd) between targets and low-molecular weight fragments, NMR fragment-based lead discovery (FBLD) is a very useful biophysical method in early stage drug discovery, especially for challenging target proteins; including those with shallow binding pockets. Since FBLD screens are performed using low-molecular weight compounds (fragments) with lower structural complexity, the same chemical space can be covered using a smaller number of drug-like fragments versus use of large libraries of higher-molecular weight lead-like compounds as in high throughput screening (HTS) campaigns. Therefore, FBLD has a much higher hit rate than HTS using only several hundred to several thousand compounds in comparison with approximately 1 million compounds for HTS. Also, the small size of the compounds screened in FBLD means a better chance to fully match the interactions with small or transient pockets within the target protein, where these less tractable pockets cannot be accessed with standard classical HTS methods. […] We expect this methodology to be more advantageous than classical HTS methods for expediting the time from hit to lead (H2L) and allows for rapid access to high quality leads with lower attrition rates in subsequent lead optimization (LO) campaigns toward pre-clinical candidate selection. FBLD screening by NMR involves a “consensus binding” approach where several distinct NMR experiments (DLB, STD, CPMG) are applied along with a free-state aggregation detection method (T2-CPMG) to rank the compounds for their affinity to the receptor (HRAS in this case) whilst simultaneously monitoring the solution behavior and critical quality attributes of each compound. The latter helps to eliminate artifact binders which are highly problematic. We performed a fluorine screen involving 461 compounds that were derived from a highly curated fragment library. Moreover, two-dimensional ^15N HSQC NMR was also used to validate ligand-binding sites on the target protein. In addition, we employed protein-detected biophysical measurements were employed to determine fragment binding affinities to the target protein (Kd) by HSQC NMR. From the results, we picked the most interesting hit were picked, FS-1255 that was identified based on consensus binding evidence from all NMR detection methods, and based the lack of free-state aggregation by T2-CPMG. We chose to prioritize on FS-1255 which was the most promising fragment hit.

T1 sequence (P01116-2 other isoform, or with tags, fused parts or gaps G12D): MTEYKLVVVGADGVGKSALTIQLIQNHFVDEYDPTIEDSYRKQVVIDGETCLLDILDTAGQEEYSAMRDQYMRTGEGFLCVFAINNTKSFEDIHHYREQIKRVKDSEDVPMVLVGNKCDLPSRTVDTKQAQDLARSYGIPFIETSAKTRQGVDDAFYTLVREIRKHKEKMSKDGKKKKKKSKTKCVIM

| SMILES | Kd (HRas^G12V [2]; HRas^G12V, read-out: NMR Kd) | 19F T2-CPMG Score (HRas^G12V [5]) | 19F DLB Score (HRas^G12V [3]) | Binding to HRas^G12V (in words) (HRas^G12V [6]) | Solution behaviour in the NMR screen [7] | also measured |
| --- | --- | --- | --- | --- | --- | --- |
| CN(C)S(=O)(=O)NCCc1c[nH]c2cc(F)ccc12 [Compound 10004, reference compound] | 6.16 to 6.4 mM | 19.49 |  |  |  | 19F DLB Score (KRAS^G12D-GDP [1]): 2.06; 19F DLB Score (HRas^G12V [3]; @ 50 uM): 5.34 @ 50 uM; 19F T2-CPMG Score (KRAS^G12D-GDP [4]): 9.41 |
| CS(=O)(=O)NCCc1c[nH]c2cc(F)ccc12 [Compound 10006, reference compound] | 10 mM | 19.5 | 3.24 |  |  |  |
| CC(=O)Nc1cccc(NC(=O)Cc2c[nH]c3cc(F)ccc23)c1 [Compound 10014] | 2.32 mM | 38.3 | 3.12 |  |  | 19F DLB Score (KRAS^G12D-GDP [1]): 2.46; Activity ranking on HRas^G12V (in words) (HRas^G12V [6]): More active; 19F T2-CPMG Score (KRAS^G12D-GDP [4]): >LOQ |
| O=C(Cc1c[nH]c2cc(F)ccc12)Nc1ccccc1 [Compound 10021, 2-(6-fluoro-1H-indol-3-yl)-N-phenyl acetamide] |  | 38.83 |  |  |  | 19F DLB Score (KRAS^G12D-GDP [1]): 2.62; 19F DLB Score (HRas^G12V [3]; @ 50 uM): 8.73 @ 50 uM; 19F T2-CPMG Score (KRAS^G12D-GDP [4]): >LOQ |
| COCCNC(=O)Cc1c[nH]c2cc(F)ccc12 [Compound 10025] | 6 mM | 1.68 | 1.22 | low or no binding |  |  |
| CC(CCO)NC(=O)Cc1c[nH]c2cc(F)ccc12 (stereo not shown) [Compound 10026] | 10 mM | 3.17 | 1.23 | low or no binding |  |  |
| O=C(Cc1c[nH]c2cc(F)ccc12)NC1CCOCC1 [Compound 10027] | 7.4 mM | 3.77 | 1.42 | low or no binding |  |  |
| O=C(Cc1c[nH]c2ncc(F)cc12)N1CCC1 [Compound 10035, 1-(azetidin-1-yl)-2-(5-fluoro-1H-pyrrolo[2,3-b]pyridin-3-yl)ethan-1-one] | > 10 mM | −0.11 | 0.91 |  |  | Activity ranking on HRas^G12V (in words) (HRas^G12V [6]): More active |
| CC(=O)N[C@H]1CCN(C(=O)Cc2c[nH]c3cc(F)ccc23)C1 [Compound 10041] | 5.2 to 9 mM | 3.92 | 1.86 |  |  |  |
| COc1cc(Cl)ccc1NC(=O)Cc1c[nH]c2cc(F)ccc12 [Compound 10051] |  |  |  | low or no binding | Not soluble |  |
| O=C(Cc1c[nH]c2cc(F)ccc12)N1CCCCC1 [Compound 10053] | 1.53 mM | 39.43 | 5.85 |  |  | 19F DLB Score (KRAS^G12D-GDP [1]): 4.89; Activity ranking on HRas^G12V (in words) (HRas^G12V [6]): More active; 19F T2-CPMG Score (KRAS^G12D-GDP [4]): >LOQ |
| N#Cc1ccc(NC(=O)Cc2c[nH]c3cc(F)ccc23)cc1 [Compound 10054] |  |  |  | low or no binding | Not soluble |  |
| COc1ccc(NC(=O)Cc2c[nH]c3cc(F)ccc23)cc1Cl [Compound 10055] |  |  |  | low or no binding | Not soluble |  |
| COc1ccc(NC(=O)Cc2c[nH]c3cc(F)ccc23)cc1F [Compound 10056] |  |  |  | low or no binding | Not soluble |  |
| COc1ccc(NC(=O)Cc2c[nH]c3cc(F)ccc23)cc1C [Compound 10057] |  |  |  | low or no binding | Not soluble |  |
| COC(=O)c1cc(NC(=O)Cc2c[nH]c3cc(F)ccc23)cc(OC)c1 [Compound 10060] |  |  |  | low or no binding | Not soluble |  |
| Cc1ccc(Cl)cc1NC(=O)Cc1c[nH]c2cc(F)ccc12 [Compound 10061] |  |  |  | low or no binding | Not soluble |  |
| CC(C(=O)N1CCC1)c1c[nH]c2cc(F)ccc12 (stereo not shown) [Compound 10066, 1-(azetidin-1-yl)-2-(6-fluoro-1H-indol-3-yl) propan-1-one] | 3.51 to 4 mM | 21.34 | 2.94 |  |  | 19F DLB Score (KRAS^G12D-GDP [1]): 2.22; Activity ranking on HRas^G12V (in words) (HRas^G12V [6]): More active; 19F T2-CPMG Score (KRAS^G12D-GDP [4]): 9.14 |
| O=C1CCN(C(=O)Cc2c[nH]c3cc(F)ccc23)CC1 [Compound 10106] |  | 13.41 | 2.25 |  |  | Kd (HRas^G12V [2]): 6.43 mM |
| NC(=O)C1CN(C(=O)Cc2c[nH]c3cc(F)ccc23)C1 [Compound 10114, 1-(2-(6-fluoro-1H-indol-3-yl)acetyl)azetidine-3-carboxamide] | 11.1 mM | 15.2 | 2.14 |  |  |  |
| CN(C)C[C@@H]1CN(C(=O)Cc2c[nH]c3cc(F)ccc23)CCO1 [Compound 10159] | 2.95 to 3.43 mM | 19.26 | 3.93 |  |  | Activity ranking on HRas^G12V (in words) (HRas^G12V [6]): More active |
| CN(C)C[C@H]1CN(C(=O)Cc2c[nH]c3cc(F)ccc23)CCO1 [Compound 10160, (S)-1-(2-((dimethylamino)methyl)morpholino)-2-(6-fluoro-1H-indol-3-yl) ethan-1-one] | 1.28 mM |  | 6.24 |  |  |  |
| CCOC(=O)Cc1c[nH]c2cc(F)ccc12 [Compound 11003, ethyl 2-(6-fluoro-1H-indol-3-yl) acetate] |  | 11.18 | 2.23 |  |  | 19F DLB Score (KRAS^G12D-GDP [1]): 2.20; 19F T2-CPMG Score (KRAS^G12D-GDP [4]): 14.19 |
